Source: PubChem BioAssay (NCI)
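GI50 marks 50% less growth. At the TGI there is no net growth.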

Legend:
Experiment in all cases: DTP human tumour cell line panel, 384-well format
[1] = tested on: 786-0 renal
[2] = tested on: A498 renal
[3] = tested on: A549 NSCLC
[4] = tested on: ACHN renal
[5] = tested on: BT-549 breast
[6] = tested on: CAKI-1 renal
[7] = tested on: CCRF-CEM leukemia
[8] = tested on: COLO 205 colon
[9] = tested on: DU-145 prostate
[10] = tested on: EKVX NSCLC
[11] = tested on: HCC-2998 colon
[12] = tested on: HCT-15 colon
[13] = tested on: HL-60(TB) leukemia
[14] = tested on: HOP-62 NSCLC
[15] = tested on: HOP-92 NSCLC
[16] = tested on: HS 578T breast
[17] = tested on: HT29 colon
[18] = tested on: IGROV1 ovarian
[19] = tested on: K-562 leukemia
[20] = tested on: KM12 colon
[21] = tested on: LOX IMVI melanoma
[22] = tested on: M14 melanoma
[23] = tested on: MALME-3M melanoma
[24] = tested on: MCF7 breast
[25] = tested on: MDA-MB-231 breast
[26] = tested on: MDA-MB-435 melanoma
[27] = tested on: MDA-MB-468 breast
[28] = tested on: MOLT-4 leukemia
[29] = tested on: NCI-H226 lung
[30] = tested on: NCI-H23 lung
[31] = tested on: NCI-H322M lung
[32] = tested on: NCI-H460 NSCLC
[33] = tested on: NCI-H522 lung
[34] = tested on: NCI/ADR-RES ovarian
[35] = tested on: OVCAR-3 ovarian
[36] = tested on: OVCAR-4 ovarian
[37] = tested on: OVCAR-5 ovarian
[38] = tested on: OVCAR-8 ovarian
[39] = tested on: PC-3 prostate
[40] = tested on: RPMI-8226 leukemia
[41] = tested on: RXF 393 renal
[42] = tested on: SF-268 CNS
[43] = tested on: SF-295 CNS
[44] = tested on: SF-539 CNS
[45] = tested on: SK-MEL-28 melanoma
[46] = tested on: SK-MEL-5 melanoma
[47] = tested on: SK-OV-3 ovarian
[48] = tested on: SN12C renal
[49] = tested on: SNB-19 CNS
[50] = tested on: SNB-75 CNS
[51] = tested on: SR leukemia
[52] = tested on: SW-620 colon
[53] = tested on: T-47D breast
[54] = tested on: TK-10 renal
[55] = tested on: UACC-257 melanoma
[56] = tested on: UACC-62 melanoma
[57] = tested on: UO-31 renal

CCN(CC)CCCC(C)Nc1c2ccc(Cl)cc2nc2ccc(OC)cc12 (centres undefined)
GI50 [1]: 1.18 µM | TGI [1]: 2.44 µM | GI50 [2]: 0.88 µM | TGI [2]: 2.11 µM | GI50 [3]: 1.51 µM | TGI [3]: 2.91 µM | GI50 [4]: 1.04 µM | TGI [4]: 2.44 µM | GI50 [5]: 1.5 µM | TGI [5]: 2.84 µM | GI50 [6]: 1.37 µM | TGI [6]: 2.74 µM | GI50 [7]: 0.609 µM | TGI [7]: 1.66 µM | GI50 [8]: 1.31 µM | TGI [8]: 2.6 µM | GI50 [9]: 1.72 µM | TGI [9]: 3.53 µM | GI50 [10]: 1.33 µM | TGI [10]: 2.82 µM | GI50 [11]: 0.985 µM | TGI [11]: 2.15 µM | GI50 [12]: 1.06 µM | TGI [12]: 2.3 µM | GI50 [13]: 1.64 µM | TGI [13]: 3 µM | GI50 [14]: 1.1 µM | TGI [14]: 2.44 µM | GI50 [15]: 0.52 µM | TGI [15]: 1.82 µM | GI50 [16]: 1.71 µM | TGI [16]: 3.08 µM | GI50 [17]: 1.33 µM | TGI [17]: 2.63 µM | GI50 [18]: 1.89 µM | TGI [18]: 3.72 µM | GI50 [19]: 1.08 µM | TGI [19]: 2.29 µM | GI50 [20]: 1.37 µM | TGI [20]: 3.13 µM | GI50 [21]: 1.39 µM | TGI [21]: 2.7 µM | GI50 [22]: 1.79 µM | TGI [22]: 3.18 µM | GI50 [23]: 1.6 µM | TGI [23]: 2.95 µM | GI50 [24]: 1.41 µM | TGI [24]: 3.2 µM | GI50 [25]: 1.18 µM | TGI [25]: 2.56 µM | GI50 [26]: 1.75 µM | TGI [26]: 3.14 µM | GI50 [27]: 0.322 µM | TGI [27]: 1.23 µM | GI50 [28]: 0.212 µM | TGI [28]: 0.357 µM | GI50 [29]: 1.33 µM | TGI [29]: 2.8 µM | GI50 [30]: 1.6 µM | TGI [30]: 2.96 µM | GI50 [31]: 1.29 µM | TGI [31]: 2.63 µM | GI50 [32]: 1.1 µM | TGI [32]: 2.31 µM | GI50 [33]: 1.47 µM | TGI [33]: 2.8 µM | GI50 [34]: 1.55 µM | TGI [34]: 2.94 µM | GI50 [35]: 1.76 µM | TGI [35]: 3.36 µM | GI50 [36]: 1.55 µM | TGI [36]: 2.92 µM | GI50 [37]: 1.92 µM | TGI [37]: 4.16 µM | GI50 [38]: 1.07 µM | TGI [38]: 2.26 µM | GI50 [39]: 1.78 µM | TGI [39]: 3.38 µM | GI50 [40]: 1.49 µM | TGI [40]: 2.81 µM | GI50 [41]: 0.668 µM | TGI [41]: 1.98 µM | GI50 [42]: 1.64 µM | TGI [42]: 3.06 µM | GI50 [43]: 1.74 µM | TGI [43]: 3.14 µM | GI50 [44]: 1.12 µM | TGI [44]: 2.33 µM | GI50 [45]: 1.87 µM | TGI [45]: 3.27 µM | GI50 [46]: 1.96 µM | TGI [46]: 3.38 µM | GI50 [47]: 1.2 µM | TGI [47]: 2.7 µM | GI50 [48]: 1.41 µM | TGI [48]: 2.86 µM | GI50 [49]: 1.94 µM | TGI [49]: 4.03 µM | GI50 [50]: 1.33 µM | TGI [50]: 2.61 µM | GI50 [51]: 0.401 µM | TGI [51]: 1.32 µM | GI50 [52]: 1.39 µM | TGI [52]: 2.94 µM | GI50 [53]: 1.64 µM | TGI [53]: 3.07 µM | GI50 [54]: 1.95 µM | TGI [54]: 3.69 µM | GI50 [55]: 1.89 µM | TGI [55]: 3.3 µM | GI50 [56]: 1.69 µM | TGI [56]: 3.06 µM | GI50 [57]: 1.85 µM | TGI [57]: 3.73 µM
